In brackets after ≈: the same amount, converted by molar mass. Read-outs that look alike come from different tables or passages of the source. Numbered stars: 1 amine (or outer) side, 2 acyl side, 3 side chain; on linkers, the order of the positions; unused ones are H or OH. Bridge positions count the residues as written; N and C are the ends. Square brackets hold non-standard residues; d marks the D form. Peptide text beside a SMILES is read from it. X1 = C=C(CC(=O)[*:1])[*:2]; X2 = C=C(CC(=O)[*:2])[*:1]; Dap = NC[C@H](N)C(=O)O
What was measured:
[1] = test system: Candida albicans SC5314 (type strain); assay: microbe, parasite or virus in culture; assay type: cell-based; details: read-out: Minimum inhibitory concentration (MIC)
Description: Candida albicans SC5314 (type strain) was grown using RPMI 1640 media (with glutamine and phenol red, without bicarbonate). MIC assays were performed in accordance with the CLSI recommended protocol ([Clinical and Laboratory Standards Institute, 2006], Performance standards for antimicrobial susceptibility testing; sixteenth informational supplement. CLSI document M100-S16, Wayne, PA., 2006). See SI for further details. […]
Antimicrobial susceptibility of Candida albicans SC5314 (type strain) was assessed by broth
microdilution in accordance with the CLSI recommended protocols (Clinical and Laboratory Standards
Institute, 2006, Performance standards for antimicrobial susceptibility testing; sixteenth informational
supplement. CLSI document M100-S16, Wayne, PA., 2006). Briefly, a two-fold dilution series of the
test compounds (from 64 μM to 0.25 μM, final) was prepared in triplicate in polypropylene 96-well
plates, using RPMI 1640 media (with glutamine and phenol red, without bicarbonate). Inoculum was
prepared from a 24 h old culture by picking 5 colonies (~1 mm in diameter) and resuspending these in
0.85% saline. Upon vortex mixing, the resulting suspension was diluted to provide a solution with
absorbance equivalent to that of a 0.5 McFarland standard, approx. 0.1 OD at 530 nm (using 1 cm path
length cuvette). This suspension was then diluted 1:50 and a further 1:20 with RPMI 1640 media to as
to achieve a final inoculum of […] to 2.5 x 10^3 CFU/mL upon addition to the plate. The plates
were incubated at 35 °C for 48 h, at which time the MIC was determined as the lowest test concentration
at which no turbidity was observed across all three replicates. The assay was performed independently
on three occasions and the reported MIC defined as the lowest concentration in which agreement was
observed for all three biological replicates.

[2] = test system: Staphylococcus aureus ATCC 29213; assay: microbe, parasite or virus in culture; assay type: cell-based; details: for MIC: read-out: Minimum inhibitory concentration (MIC)
Description: (§1) Staphylococcus aureus ATCC 29213, Pseudomonas aeruginosa (SVB-B9) (type strain) and Escherichia coli ATCC 25922 were grown in cation adjusted Mueller Hinton (MH) broth at 37°C with shaking (200 rpm). MIC assays were performed in accordance with the CLSI recommended protocols ([Clinical and Laboratory Standards Institute, 2006], Performance standards for antimicrobial susceptibility testing; sixteenth informational supplement. CLSI document M100-S16, Wayne, PA., 2006). See SI for further details.
(§2) 4 Antimicrobial Testing of Thanatin* (5) and Analogues 8 – 11
(§3) 4.1 Antibacterial Testing
(§4) Staphylococcus aureus ATCC 29213, Pseudomonas aeruginosa (SVB-B9) (type strain) and
(§5) Escherichia coli ATCC 25922 were grown in cation adjusted Mueller Hinton (CAMHB) broth at 37
(§6) °C with shaking (200 rpm). MIC assays were performed in accordance with the CLSI recommended
(§7) protocol (Clinical and Laboratory Standards Institute, 2006, Performance standards for antimicrobial
(§8) susceptibility testing; sixteenth informational supplement. CLSI document M100-S16, Wayne, PA.,
(§9) 2006). Briefly, a two-fold dilution series of the test compounds (from […], final) was
(§10) prepared in triplicate in polypropylene 96-well plates in CAMHB. Fresh cultures of bacteria grown for
(§11) ca. 6 h were diluted accordingly in fresh media before adding 50 µL of inoculum to each well of the
(§12) MIC plate, to achieve a final volume of 100 µL with a uniform CFU/ml of ~5 x105 in each well. A
(§13) growth control (untreated) and sterility control (non-inoculated) well was included for each test
(§14) compound replicate. Plates were incubated at 37 °C with shaking for 18 h before determining the MIC.
(§15) MIC values were determined as the lowest concentration at which no growth was observed consistently
(§16) across all three biological replicates of the assay and within triplicates of each test compound. […]

[3] = test system: Escherichia coli ATCC 25922; assay type: cell-based
Description: as §1, §2, §3, §4, §5, §6, §7, §8, §9, §10, §11, §12, §13, §14, §15, §16

[4] = test system: Pseudomonas aeruginosa (SVB-B9) (type strain); assay type: cell-based; details: 18 h
Description: as §1, §2, §3, §4, §5, §6, §7, §8, §9, §10, §11, §12, §13, §14, §15, §16

E. coli ATCC 25922 = details: non-cation adjusted media, ref Wu et al. (2013); cited from earlier work
From the text: TABLE 1 Minimum Inhibitory Concentrations (MICs) of thanatin* (5) and similar analogues against a variety of pathogens. | column: Minimum inhibitory concentration (µM) / Thanatin ^a ^, ^b (1); Minimum inhibitory concentration (µM) / S-Thanatin ^a (3) || TABLE 2 Minimum Inhibitory Concentrations (MICs) of thanatin* (5) and analogues (8–11) towards a variety of pathogens. | column: Minimum inhibitory concentration (µM) / 1 (Thanatin) ^a

P. aeruginosa = details: ref Cirioni et al., 2011, cited from earlier work

Compound	MIC ([1]; SC5314, 48 h)	MIC ([2]; ATCC 29213, 18 h)	Minimum inhibitory concentration (MIC) ([3]; ATCC 25922, 18 h)	Minimum inhibitory concentration (MIC) ([4]; SVB-B9) (type strain)	other results
C=C1CC(=O)NC[C@H](NC(=O)[C@H](Cc2ccc(O)cc2)NC(=O)[C@@H](NC(=O)[C@@H](NC(=O)[C@@H]2CCCN2C(=O)[C@@H](NC(=O)[C@@H]2CCCN2C(=O)[C@H](CCCCN)NC(=O)[C@H](CCCCN)NC(=O)[C@H](CO)NC(=O)CN)C(C)C)[C@@H](C)CC)[C@@H](C)CC)C(=O)N[C@@H](CC(N)=O)C(=O)N[C@@H](CCCNC(=N)N)C(=O)N[C@@H](CCCNC(=N)N)C(=O)N[C@@H](CO)C(=O)NCC(=O)N[C@@H](CCCCN)C(=O)N[C@H](C(=O)N[C@@H](CCC(N)=O)C(=O)N[C@@H](CCCNC(=N)N)C(=O)N[C@@H](Cc2ccccc2)C(N)=O)CS1 [compound 9] (H-GSKKPVPIIY[Dap]NRRSGKCQRF-NH2; linker 11-18 via X1)	>64 µM	>64 µM	16 µM (≈ 39.8 µg/mL)	>64 µM	reduction in potency compared to thanatin* (5) ([3]; E. coli ATCC 25922 MIC): 16 fold
C=C1CC(=O)NCCCC[C@@H](C(=O)N[C@@H](CCC(N)=O)C(=O)N[C@@H](CCCNC(=N)N)C(=O)N[C@@H](Cc2ccccc2)C(N)=O)NC(=O)[C@H](CCCCN)NC(=O)CNC(=O)[C@H](CO)NC(=O)[C@H](CCCNC(=N)N)NC(=O)[C@H](CCCNC(=N)N)NC(=O)[C@H](CC(N)=O)NC(=O)[C@@H](NC(=O)[C@H](Cc2ccc(O)cc2)NC(=O)[C@@H](NC(=O)[C@@H](NC(=O)[C@@H]2CCCN2C(=O)[C@@H](NC(=O)[C@@H]2CCCN2C(=O)[C@H](CCCCN)NC(=O)[C@H](CCCCN)NC(=O)[C@H](CO)NC(=O)CN)C(C)C)[C@@H](C)CC)[C@@H](C)CC)CS1 [compound 10] (H-GSKKPVPIIYCNRRSGKKQRF-NH2; linker 11-18 via X2)	>64 µM	>64 µM	4 µM (≈ 10.1 µg/mL)	>64 µM	
C=C1CC(=O)NC[C@@H](C(=O)N[C@@H](CCC(N)=O)C(=O)N[C@@H](CCCNC(=N)N)C(=O)N[C@@H](Cc2ccccc2)C(N)=O)NC(=O)[C@H](CCCCN)NC(=O)CNC(=O)[C@H](CO)NC(=O)[C@H](CCCNC(=N)N)NC(=O)[C@H](CCCNC(=N)N)NC(=O)[C@H](CC(N)=O)NC(=O)[C@@H](NC(=O)[C@H](Cc2ccc(O)cc2)NC(=O)[C@@H](NC(=O)[C@@H](NC(=O)[C@@H]2CCCN2C(=O)[C@@H](NC(=O)[C@@H]2CCCN2C(=O)[C@H](CCCCN)NC(=O)[C@H](CCCCN)NC(=O)[C@H](CO)NC(=O)CN)C(C)C)[C@@H](C)CC)[C@@H](C)CC)CS1 [compound 11] (H-GSKKPVPIIYCNRRSGK[Dap]QRF-NH2; linker 11-18 via X2)	>64 µM	>64 µM	8 µM (≈ 19.9 µg/mL)	>64 µM	
CC[C@H](C)[C@H](NC(=O)[C@@H](NC(=O)[C@@H]1CCCN1C(=O)[C@@H](NC(=O)[C@@H]1CCCN1C(=O)[C@H](CCCCN)NC(=O)[C@H](CCCCN)NC(=O)[C@H](CO)NC(=O)CN)C(C)C)[C@@H](C)CC)C(=O)N[C@@H](Cc1ccc(O)cc1)C(=O)N[C@H]1CSSC[C@@H](C(=O)N[C@@H](CCC(N)=O)C(=O)N[C@@H](CCCNC(=N)N)C(=O)N[C@@H](Cc2ccccc2)C(N)=O)NC(=O)[C@H](CCCCN)NC(=O)CNC(=O)[C@H](CO)NC(=O)[C@H](CCCNC(=N)N)NC(=O)[C@H](CCCNC(=N)N)NC(=O)[C@H](CC(N)=O)NC1=O [Thanatin* (5), thanatin*] (H-GSKKPVPIIYCNRRSGKCQRF-NH2; disulfide 11-18)	>64 µM	>64 µM	1 µM (≈ 2.43 µg/mL)	>64 µM	Minimum inhibitory concentration (MIC) ([2]; S. aureus ATCC 29213, cation adjusted Mueller Hinton broth, 37 °C, 18 h, ~5 x10^5 CFU/mL, triplicate, three biological replicates): no activity; selectivity towards E. coli over P. aeruginosa ([3]; ratio of MICs, P. aeruginosa (SVB-B9) vs E. coli ATCC 25922, cation adjusted media): > 64 fold
S-thanatin [S-Thanatin (3)]					Minimum inhibitory concentration (MIC) (E. coli ATCC 25922): 1.6 µM; FICI (P. aeruginosa; S-thanatin with colistin (polymyxin E)): 0.46; MIC (P. aeruginosa): 16 µg/mL
C=C1CC(=O)NCCCC[C@H](NC(=O)[C@H](Cc2ccc(O)cc2)NC(=O)[C@@H](NC(=O)[C@@H](NC(=O)[C@@H]2CCCN2C(=O)[C@@H](NC(=O)[C@@H]2CCCN2C(=O)[C@H](CCCCN)NC(=O)[C@H](CCCCN)NC(=O)[C@H](CO)NC(=O)CN)C(C)C)[C@@H](C)CC)[C@@H](C)CC)C(=O)N[C@@H](CC(N)=O)C(=O)N[C@@H](CCCNC(=N)N)C(=O)N[C@@H](CCCNC(=N)N)C(=O)N[C@@H](CO)C(=O)NCC(=O)N[C@@H](CCCCN)C(=O)N[C@H](C(=O)N[C@@H](CCC(N)=O)C(=O)N[C@@H](CCCNC(=N)N)C(=O)N[C@@H](Cc2ccccc2)C(N)=O)CS1 [compound 8] (H-GSKKPVPIIYKNRRSGKCQRF-NH2; linker 11-18 via X1)	>64 µM	>64 µM	4 µM (≈ 10.1 µg/mL)	>64 µM	
polymyxin B [PMB, reference compound]					Minimum inhibitory concentration (MIC) ([3]; E. coli ATCC 25922, cation adjusted Mueller Hinton broth, 37 °C, 18 h, ~5 x10^5 CFU/mL, triplicate, three biological replicates): 0.125 µM; Minimum inhibitory concentration (MIC) ([4]; P. aeruginosa (SVB-B9) type strain, cation adjusted Mueller Hinton broth, 37 °C, ~5 x10^5 CFU/mL, triplicate, three biological replicates): 0.125 µM
CC1(C)S[C@@H]2[C@H](NC(=O)[C@H](N)c3ccc(O)cc3)C(=O)N2[C@H]1C(=O)O [AMX, amoxicillin, reference compound]					MIC ([2]; Staphylococcus aureus, ATCC29213, S. aureus ATCC 29213, cation adjusted Mueller Hinton broth, 37 °C, 18 h, ~5 x10^5 CFU/mL, triplicate, three biological replicates): 2 µM (≈ 0.731 µg/mL)
C[C@@H]1[C@H](O)[C@@H](C)/C=C/C=C/C=C/C=C/C=C/C=C/C=C/[C@H](O[C@@H]2O[C@H](C)[C@@H](O)[C@H](N)[C@@H]2O)C[C@@H]2O[C@](O)(C[C@@H](O)C[C@@H](O)[C@H](O)CC[C@@H](O)C[C@@H](O)CC(=O)O[C@H]1C)C[C@H](O)[C@H]2C(=O)O [AMB, amphotericin B, reference compound]					MIC ([1]; Candida albicans, C. albicans SC5314, RPMI 1640 media, 35 °C, 48 h, triplicate, three independent assays): 1 µM (≈ 0.924 µg/mL)
